Experimental data taken from ChEMBL document CHEMBL1201862, “PubChem BioAssay data set” (2004).
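96-well plates; 48 h exposure; 5 concentrations. Endpoints by linear interpolation between flanking doses. Not reached: highest tested concentration assigned. GI50 marks 50% less growth.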 Calls of active or inactive are those of the source. No stated cut-off is given here; in the data, active = GI50 up to about 1.1 µM and inactive = higher.

Tests used:
Test in all cases: NCI-60 cell line screen, 48 h
EKVX = system: EKVX
HL-60 = system: HL-60
NCI-H522 = system: NCI-H522
A498 = system: A498
MCF7 = system: MCF7
A549 = system: A549
UACC-257 = system: UACC-257
HCT-116 = system: HCT-116
CCRF-CEM = system: CCRF-CEM
SR = system: SR
HOP-62 = system: HOP-62
MOLT-4 = system: MOLT-4
TK-10 = system: TK-10
MDA-N = system: MDA-N
RPMI-8226 = system: RPMI-8226
SN12C = system: SN12C
HCC 2998 = system: HCC 2998
HOP-92 = system: HOP-92
KM12 = system: KM12
SW-620 = system: SW-620

| SMILES | GI50 (EKVX) | GI50 (HL-60) | GI50 (NCI-H522) | GI50 (A498) | GI50 (MCF7) | GI50 (A549) | GI50 (UACC-257) | GI50 (HCT-116) | GI50 (CCRF-CEM) | GI50 (SR) | GI50 (HOP-62) | GI50 (MOLT-4) | GI50 (TK-10) | GI50 (MDA-N) | GI50 (RPMI-8226) | GI50 (SN12C) | GI50 (HCC 2998) | GI50 (HOP-92) | GI50 (KM12) | GI50 (SW-620) |
| --- | --- | --- | --- | --- | --- | --- | --- | --- | --- | --- | --- | --- | --- | --- | --- | --- | --- | --- | --- | --- |
| O=C(O)c1cnc2cc(OCc3ccccc3)ccc2c1O | 22.8 µM (inactive) | 0.256 µM (active) | 16.5 µM (inactive) | 17.6 µM (inactive) | 20.1 µM (inactive) | 19.5 µM (inactive) | 24 µM (inactive) | 17.2 µM (inactive) | 5.37 µM (inactive) | 23 µM (inactive) | 20.7 µM (inactive) | 31.2 µM (inactive) | 19.9 µM (inactive) | 17 µM (inactive) | 24.8 µM (inactive) | 18.2 µM (inactive) | 18.3 µM (inactive) | 19.4 µM (inactive) | 18.5 µM (inactive) | 19.2 µM (inactive) |
| CN(CC(=O)O)Cc1oc(CO)cc(=O)c1O | > 100 µM (inactive) | 30 µM (inactive) | > 100 µM (inactive) | > 100 µM (inactive) | > 100 µM (inactive) | > 100 µM (inactive) | > 100 µM (inactive) | > 100 µM (inactive) | > 100 µM (inactive) | > 100 µM (inactive) | > 100 µM (inactive) | > 100 µM (inactive) | > 100 µM (inactive) | > 100 µM (inactive) | > 100 µM (inactive) | > 100 µM (inactive) | > 100 µM (inactive) | > 100 µM (inactive) | > 100 µM (inactive) | > 100 µM (inactive) |
| Cc1c(C#N)c2nnn(-c3ccc(Cl)cc3)c(=O)n2c1-c1ccccc1 | 0.237 µM (active) | 0.0752 µM (active) | 0.0586 µM (active) | 0.124 µM (active) | 0.42 µM (active) | 0.166 µM (active) | 3.15 µM (inactive) | 0.0649 µM (active) | 0.0991 µM (active) | < 0.0212 µM (active) | 0.108 µM (active) | 0.063 µM (active) | 0.476 µM (active) | 0.0173 µM (active) | 0.16 µM (active) | 0.107 µM (active) | 0.0713 µM (active) | 0.474 µM (active) | 0.051 µM (active) | 0.113 µM (active) |
| CN(O)C(=O)c1ccc(OCc2cccc(Cl)c2)cc1 | 30.3 µM (inactive) | 6.12 µM (inactive) | 13.1 µM (inactive) | 25.8 µM (inactive) | 32.4 µM (inactive) | 16 µM (inactive) | 38.2 µM (inactive) | 8.45 µM (inactive) | 5.12 µM (inactive) | 4.91 µM (inactive) | 16.7 µM (inactive) | 9.64 µM (inactive) | 57.4 µM (inactive) | 35.8 µM (inactive) | 14.8 µM (inactive) | 18 µM (inactive) | 15.3 µM (inactive) | 58.5 µM (inactive) | 27.5 µM (inactive) | 32.8 µM (inactive) |
| CC(C)(C)c1ccc2c(c1)OCc1n[nH]c(n1)COc1cc(C(C)(C)C)ccc1OCCOCCO2 | 4.3 µM (inactive) | 4.35 µM (inactive) | 2.4 µM (inactive) | 5.64 µM (inactive) | 3.31 µM (inactive) | 3.01 µM (inactive) | 2.65 µM (inactive) | 4.31 µM (inactive) | 5.31 µM (inactive) | 3.09 µM (inactive) | 5.62 µM (inactive) | 3.67 µM (inactive) | 2.58 µM (inactive) | 3.11 µM (inactive) | 2.99 µM (inactive) | 4.55 µM (inactive) | 3.72 µM (inactive) | 3.88 µM (inactive) | 3.85 µM (inactive) | 3.16 µM (inactive) |
| c1ccc2c3c([nH]c2c1)C1c2[nH]c4ccccc4c2CCN1CC3 | 6.12 µM (inactive) | 16.8 µM (inactive) | 11.6 µM (inactive) | 19 µM (inactive) | 10.1 µM (inactive) | 14.7 µM (inactive) | 14.5 µM (inactive) | 10.2 µM (inactive) | 13.5 µM (inactive) | 9.75 µM (inactive) | 13.6 µM (inactive) | 7.59 µM (inactive) | 11.2 µM (inactive) | 18.1 µM (inactive) | 11.9 µM (inactive) | 15.2 µM (inactive) | 7.64 µM (inactive) | 2.03 µM (inactive) | 12.5 µM (inactive) | 16.2 µM (inactive) |
| O=C(/C=C/c1ccccc1)c1ccccc1 [CHALCONE] | > 10 µM (inactive) | 4.07 µM (inactive) | > 10 µM (inactive) | > 10 µM (inactive) | 2.7 µM (inactive) | > 10 µM (inactive) | > 10 µM (inactive) | 2.01 µM (inactive) | > 4.83 µM (inactive) | > 6.58 µM (inactive) | > 10 µM (inactive) | 0.938 µM (active) | > 10 µM (inactive) | > 10 µM (inactive) | > 4.85 µM (inactive) | > 10 µM (inactive) | > 10 µM (inactive) | > 10 µM (inactive) | 3.78 µM (inactive) | 3.34 µM (inactive) |
| CCCCCCCCCCCCCCCCCCOCC(COP(=O)([O-])OCC[N+](C)(C)C)OC (stereo not given) [EDELFOSINE] | 44.3 µM (inactive) | 3.94 µM (inactive) | 11.4 µM (inactive) | 19.8 µM (inactive) | 27.5 µM (inactive) | 21.4 µM (inactive) | 24 µM (inactive) | 14.7 µM (inactive) | 7.62 µM (inactive) | 7.87 µM (inactive) | 19.2 µM (inactive) | 11.5 µM (inactive) | 19 µM (inactive) | > 69.3 µM (inactive) | 20.9 µM (inactive) | 12.1 µM (inactive) | 2.38 µM (inactive) | 8.75 µM (inactive) | 5.09 µM (inactive) | 19.1 µM (inactive) |
